Laboratory results published in patent US8076487B2, “Pyridone derivative and herbicide” (Kumiai Chemical Industry Co., Ltd., priority 2006, dated 2011).

What was measured:
Format in all cases: in vivo
[1] = system: Japanese bulrush (Scirpus juncoides Roxb.); assay: Test Example 1: herbicidal effect by soil application to paddy field; details: paddy field soil application; active ingredient 1,000 g per 1 hectare; wettable powder added dropwise to water surface the day after sowing; examined on the 21st day after application
How it was run: (§1)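 Plants were sown in flooded (3 cm) paddy soil and evaluated for herbicidal effect 21 days after soil application in a greenhouse.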

[2] = system: early watergrass (Echinochloa oryzicola Vasing); assay: as above; details: paddy field soil application; active ingredient 1,000 g per 1 hectare; wettable powder added dropwise to water surface the day after sowing; examined on the 21st day after application
How it was run: as §1

[3] = system: heartshape false pickerelweed (Monochoria vaginalis (Burm.f.) C.Presl); assay: as above; details: paddy field soil application; active ingredient 1,000 g per 1 hectare; wettable powder added dropwise to water surface the day after sowing; examined on the 21st day after application
How it was run: as §1

[4] = system: velvetleaf (Abutilon theophrasti medicus); assay: Test Example 2: herbicidal effect by soil application to upland field; details: soil surface spray, upland field soil, 1,000 g active ingredient per hectare, 21st day after application
How it was run: (§2)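 A standard visual rating of herbicidal effect, made 21 days after treatment, gives the value. Treatment consisted of a uniform spray of water-diluted wettable powder on the soil covering newly sown seeds, equivalent to 1,000 g active ingredient and 1,000 liters per hectare.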

[5] = system: slender amaranth (Amaranthus viridis L.); assay: as above; details: soil surface spray, upland field soil, 1,000 g active ingredient per hectare, 21st day after application
How it was run: as §2

[6] = system: green foxtail (Setaria viridis (L.) P. Beauv.); assay: as above; details: soil surface spray, upland field soil, 1,000 g active ingredient per hectare, 21st day after application
How it was run: as §2

[7] = system: barnyardgrass (Echinochloa crus-galli (L.) P. Beauv. var. crus-galli); assay: as above; details: soil surface spray, upland field soil, 1,000 g active ingredient per hectare, 21st day after application
How it was run: as §2

[8] = system: velvetleaf (Abutilon theophrasti medicus); assay: Test Example 3: herbicidal effect by application to upland field (foliage treatment); details: 14th day after application; for herbicidal effect, Velvetleaf: foliage treatment, 1,000 g active ingredient per 1 hectare, greenhouse
How it was run: (§3)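 Upland foliage test in greenhouse pots of field soil: seedlings sprayed at two weeks post-sowing with 1,000 g/ha active ingredient (wettable powder, 1,000 L water/ha). Scored 14 d after application.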

[9] = system: slender amaranth (Amaranthus viridis L.); assay: as above; details: 14th day after application; for herbicidal effect, Slender Amaranth: foliage treatment, 1,000 g active ingredient per 1 hectare, greenhouse
How it was run: as §3

[10] = system: green foxtail (Setaria viridis (L.) P. Beauv.); assay: as above; details: 14th day after application; for herbicidal effect, Green Foxtail: foliage treatment, 1,000 g active ingredient per 1 hectare, greenhouse
How it was run: as §3

[11] = system: barnyardgrass (Echinochloa crus-galli (L.) P. Beauv. var. crus-galli); assay: as above; details: 14th day after application; for herbicidal effect, Barnyardgrass: foliage treatment, 1,000 g active ingredient per 1 hectare, greenhouse
How it was run: as §3

[12] = foliage treatment, plants grown two weeks, 1,000 g active ingredient per hectare

Compound: Cn1ncc(C(=O)c2ccc(C(F)(F)F)n(-c3cc(F)ccc3F)c2=O)c1O [IV-83]
- herbicidal effect, Scirpus juncoides Roxb. [1]: 5 (90% or more of herbicidal effect and crop phytotoxicity)
- herbicidal effect, Echinochloa oryzicola Vasing [2]: 5 (90% or more of herbicidal effect and crop phytotoxicity)
- herbicidal effect, Monochoria vaginalis (Burm. f.) C. Presl [3]: 5 (90% or more of herbicidal effect and crop phytotoxicity)
- herbicidal effect (index), Velvetleaf [4]: 5 (90% or more of herbicidal effect and crop phytotoxicity)
- herbicidal effect (index), Slender Amaranth [5]: 5 (90% or more of herbicidal effect and crop phytotoxicity)
- herbicidal effect (index), Green Foxtail [6]: 5 (90% or more of herbicidal effect and crop phytotoxicity)
- herbicidal effect (index), Barnyardgrass [7]: 5 (90% or more of herbicidal effect and crop phytotoxicity)
- herbicidal effect, Velvetleaf [8]: 5 (90% or more of herbicidal effect and crop phytotoxicity)
- herbicidal effect, Slender Amaranth [9]: 5 (90% or more of herbicidal effect and crop phytotoxicity)
- herbicidal effect, Green Foxtail [10]: 5 (90% or more of herbicidal effect and crop phytotoxicity)
- herbicidal effect, Barnyardgrass [11]: 5 (90% or more of herbicidal effect and crop phytotoxicity)

Compound: COCCOCCn1c(C(F)(F)F)ccc(C(=O)C2=C(O)C3CCC(C3)C2=O)c1=O (stereo not drawn) [III-23]
- herbicidal effect, Scirpus juncoides Roxb. [1]: 5 (90% or more of herbicidal effect and crop phytotoxicity)
- herbicidal effect, Echinochloa oryzicola Vasing [2]: 5 (90% or more of herbicidal effect and crop phytotoxicity)
- herbicidal effect, Monochoria vaginalis (Burm. f.) C. Presl [3]: 5 (90% or more of herbicidal effect and crop phytotoxicity)
- herbicidal effect (index), Velvetleaf [4]: 5 (90% or more of herbicidal effect and crop phytotoxicity)
- herbicidal effect (index), Slender Amaranth [5]: 5 (90% or more of herbicidal effect and crop phytotoxicity)
- herbicidal effect (index), Green Foxtail [6]: 5 (90% or more of herbicidal effect and crop phytotoxicity)
- herbicidal effect (index), Barnyardgrass [7]: 5 (90% or more of herbicidal effect and crop phytotoxicity)
- herbicidal effect, Velvetleaf [8]: 5 (90% or more of herbicidal effect and crop phytotoxicity)
- herbicidal effect, Slender Amaranth [9]: 5 (90% or more of herbicidal effect and crop phytotoxicity)
- herbicidal effect, Green Foxtail [10]: 5 (90% or more of herbicidal effect and crop phytotoxicity)
- herbicidal effect, Barnyardgrass [11]: 5 (90% or more of herbicidal effect and crop phytotoxicity)

Compound: CC(C)(C)S(=O)(=O)Cn1c(C(F)(F)F)ccc(C(=O)C2=C(O)CCCC2=O)c1=O [I-56]
- herbicidal effect, Scirpus juncoides Roxb. [1]: 5 (90% or more of herbicidal effect and crop phytotoxicity)
- herbicidal effect, Echinochloa oryzicola Vasing [2]: 5 (90% or more of herbicidal effect and crop phytotoxicity)
- herbicidal effect, Monochoria vaginalis (Burm. f.) C. Presl [3]: 5 (90% or more of herbicidal effect and crop phytotoxicity)
- herbicidal effect (index), Velvetleaf [4]: 5 (90% or more of herbicidal effect and crop phytotoxicity)
- herbicidal effect (index), Slender Amaranth [5]: 5 (90% or more of herbicidal effect and crop phytotoxicity)
- herbicidal effect (index), Green Foxtail [6]: 5 (90% or more of herbicidal effect and crop phytotoxicity)
- herbicidal effect (index), Barnyardgrass [7]: 4 (70 to less than 90% of herbicidal effect and crop phytotoxicity)
- herbicidal effect (index), Velvetleaf [8, 12]: 5 (90% or more of herbicidal effect and crop phytotoxicity)
- herbicidal effect (index), Slender Amaranth [9, 12]: 5 (90% or more of herbicidal effect and crop phytotoxicity)
- herbicidal effect (index), Green Foxtail [10, 12]: 5 (90% or more of herbicidal effect and crop phytotoxicity)
- herbicidal effect (index), Barnyardgrass [11, 12]: 5 (90% or more of herbicidal effect and crop phytotoxicity)
